For orientation: Ki means a dissociation constant, usually derived from enzyme kinetics or from competition with a known ligand. As a reminder, the IC50 is the concentration needed to halve the response being measured.

Read-outs that look alike come from different tables or passages of the source. Some results are limits rather than exact numbers.

18 compounds from patent US12338243B2, “P2X7 modulators” (JANSSEN PHARMACEUTICA NV, priority 2014, dated 2025) can be followed below.

Assay [1] deals with T1, rat P2X7 (Rattus norvegicus, UniProt Q64663).
T1 sequence (Q64663 1-595): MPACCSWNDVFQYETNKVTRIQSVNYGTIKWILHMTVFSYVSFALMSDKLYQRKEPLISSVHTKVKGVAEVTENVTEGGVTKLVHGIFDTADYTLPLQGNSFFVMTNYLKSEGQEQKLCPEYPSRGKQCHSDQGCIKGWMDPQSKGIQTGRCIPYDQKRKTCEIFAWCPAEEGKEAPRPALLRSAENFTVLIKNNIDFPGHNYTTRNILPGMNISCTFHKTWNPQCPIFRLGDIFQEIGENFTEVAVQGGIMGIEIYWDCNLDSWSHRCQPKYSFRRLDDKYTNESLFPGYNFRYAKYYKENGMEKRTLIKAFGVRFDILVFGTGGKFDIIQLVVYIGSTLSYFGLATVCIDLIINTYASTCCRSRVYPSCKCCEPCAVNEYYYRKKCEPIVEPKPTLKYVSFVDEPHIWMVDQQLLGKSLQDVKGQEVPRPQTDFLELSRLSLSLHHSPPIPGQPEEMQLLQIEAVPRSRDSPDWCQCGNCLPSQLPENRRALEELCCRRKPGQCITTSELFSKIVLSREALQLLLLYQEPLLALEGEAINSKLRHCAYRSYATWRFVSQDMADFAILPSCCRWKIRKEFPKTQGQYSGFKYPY
As to the kind of experiment: Radioligand binding, rat P2X7-1321N1 cell membranes, tritiated A-804598.
Text: (§1) P2X7 Antagonism in Recombinant Human P2X7 Cells or Recombinant Rat P2X7 Cells: (a) Ca^2+ Flux and (b) Radioligand Binding

Assay [2] deals with T1, rat P2X7. As to the kind of experiment: Ca2+ flux (FLIPR) in 1321N1 cells expressing recombinant rat P2X7 channel. The following applies: 250 μM BzATP. (A change in cytosolic calcium serves as a functional read-out for many receptors and channels.)
Assay [3] deals with T2, P2X7 (Homo sapiens, UniProt Q99572).
T2 sequence (Q99572 1-595): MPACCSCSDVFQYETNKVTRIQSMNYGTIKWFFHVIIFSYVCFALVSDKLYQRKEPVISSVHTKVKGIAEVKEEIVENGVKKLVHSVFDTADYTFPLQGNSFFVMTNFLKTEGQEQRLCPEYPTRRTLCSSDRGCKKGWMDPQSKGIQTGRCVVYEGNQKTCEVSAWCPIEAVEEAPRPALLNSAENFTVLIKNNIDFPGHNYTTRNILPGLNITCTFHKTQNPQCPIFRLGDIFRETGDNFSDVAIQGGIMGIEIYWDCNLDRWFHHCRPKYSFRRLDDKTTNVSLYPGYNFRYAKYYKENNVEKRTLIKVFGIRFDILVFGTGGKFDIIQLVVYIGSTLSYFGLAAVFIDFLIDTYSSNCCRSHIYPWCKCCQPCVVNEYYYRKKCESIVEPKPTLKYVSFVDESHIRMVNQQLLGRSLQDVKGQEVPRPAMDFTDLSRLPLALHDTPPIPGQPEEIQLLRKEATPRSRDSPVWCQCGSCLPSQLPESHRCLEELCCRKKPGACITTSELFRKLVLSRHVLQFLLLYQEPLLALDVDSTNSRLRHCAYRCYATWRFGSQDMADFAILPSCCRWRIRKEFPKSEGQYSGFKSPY
Kind of assay: Radioligand binding, human P2X7-1321N1 cell membranes, tritiated A-804598.
Text: as §1

Assay [4] has as its target T2, P2X7. As to the kind of experiment: Ca2+ flux (FLIPR) in 1321N1 cells expressing recombinant human P2X7 channel. The format is cell-based. On the set-up: expressed in transfected cells; host or cells: 1321N1 cells. Particulars: 250 μM BzATP. A digest of the protocol: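 1321N1 cells expressing recombinant human P2X7, loaded 60 min with Calcium-4 dye in HEPES buffer pH 7.40 (1 mM CaCl2, 1 mM MgCl2), preincubated 30 min with compounds. Fluorescence change recorded 180 seconds after agonist addition.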

Regarding `O=C(c1cccc(C(F)(F)F)c1Cl)N1CCn2c(nnc2C(F)(F)F)C1c1ccccc1` (racemic) [Example 75, (±)-(2-chloro-3-(trifluoromethyl)phenyl)(8-phenyl-3-(trifluoromethyl)-5,6-dihydro-[1,2,4]triazolo[4,3-a]pyrazin-7(8H)-yl)methanone], the Ki was found to be 25.1 nM in assay [1] and 28.8 nM in assay [3]. In addition, the results for the IC50 in assay [2] (FLIPR (rat) IC50 (μM)) and in assay [4] were 0.542 µM and 52.9 nM, respectively.

For the compound `C[C@@H]1c2nnc(-c3ccccn3)n2CCN1C(=O)c1cccc(Cl)c1Cl` (single isomer, unassigned) [Example 2], the affinity in assay [1] corresponds to a Ki of 9.3 nM. In addition, the IC50 in assay [2] (FLIPR (rat) IC50 (μM)) was 0.815 µM.

For the compound `C[C@H]1c2nnc(-c3ccccn3)n2CCN1C(=O)c1cccc(Cl)c1Cl` (single isomer, unassigned) [Example 3], the affinity in assay [1] corresponds to a Ki of 1780 nM. Also, in assay [2] (FLIPR (rat) IC50 (μM)), the IC50 is greater than 10 µM.

The compound `C[C@H]1Cn2c(nnc2-c2ccccc2F)CN1C(=O)c1cccc(Cl)c1Cl` [Example 38, (S)-(2,3-dichlorophenyl)(3-(2-fluorophenyl)-6-methyl-5,6-dihydro-[1,2,4]triazolo[4,3-a]pyrazin-7(8H)-yl)methanone] yielded a Ki in assay [1] of 56.2 nM. In addition, the concentration for half-maximal inhibition (IC50) in assay [2] (FLIPR (rat) IC50 (μM)) was 7.67 µM; in assay [4], 9930 nM.

As to `C[C@H]1Cn2c(nnc2-c2cccc(F)c2)CN1C(=O)c1cccc(C(F)(F)F)c1Cl` [Example 42, (S)-(2-chloro-3-(trifluoromethyl)phenyl)(3-(3-fluorophenyl)-6-methyl-5,6-dihydro-[1,2,4]triazolo[4,3-a]pyrazin-7(8H)-yl)methanone], affinity in assay [1] was put at a Ki of 18.6 nM. Besides, the IC50 in assay [2] (FLIPR (rat) IC50 (μM)) is 9.23 µM; in assay [4] it was 2130 nM.

In assay [1], `C[C@H]1Cn2c(nnc2-c2cccc(F)c2)CN1C(=O)c1ccc(F)c(Cl)c1Cl` [Example 43, (S)-(2,3-dichloro-4-fluorophenyl)(3-(3-fluorophenyl)-6-methyl-5,6-dihydro-[1,2,4]triazolo[4,3-a]pyrazin-7(8H)-yl)methanone] returned a Ki of 133 nM. The IC50 is greater than 10 µM in assay [2] (FLIPR (rat) IC50 (μM)) and 9710 nM in assay [4].

For the compound `Cc1nnc2n1CCN(C(=O)c1cccc(C(F)(F)F)c1Cl)[C@H]2c1ccccc1` [Example 66, (S)-(2-chloro-3-(trifluoromethyl)phenyl)(3-methyl-8-phenyl-5,6-dihydro-[1,2,4]triazolo[4,3-a]pyrazin-7(8H)-yl)methanone], the Ki was determined as 2 nM in assay [1] and 7.9 nM in assay [3]. In addition, the IC50 in assay [2] (FLIPR (rat) IC50 (μM)) stood at 0.0269 µM; in assay [4], 2.7 nM.

As for `C[C@H]1Cn2c(nnc2-c2ccc(F)cn2)CN1C(=O)c1cccc(C(F)(F)F)c1Cl` [Example 70, (S)-(2-chloro-3-(trifluoromethyl)phenyl)(3-(5-fluoropyridin-2-yl)-6-methyl-5,6-dihydro-[1,2,4]triazolo[4,3-a]pyrazin-7(8H)-yl)methanone], the Ki was determined as 4 nM in assay [1] and 12.6 nM in assay [3]. In addition, the IC50 in assay [2] (FLIPR (rat) IC50 (μM)) was determined as 0.0077 µM; in assay [4], 6.9 nM.

Turning to `COc1ccc(-c2nnc3n2C[C@H](C)N(C(=O)c2cccc(Cl)c2Cl)C3)nc1` [Example 72, (S)-(2,3-dichlorophenyl)(3-(5-methoxypyridin-2-yl)-6-methyl-5,6-dihydro-[1,2,4]triazolo[4,3-a]pyrazin-7(8H)-yl)methanone], the Ki in assay [1] is 178 nM. The values for the IC50 in assay [2] (FLIPR (rat) IC50 (μM)) and in assay [4] were greater than 10 µM and 8590 nM, respectively.

`O=C(c1cccc(C(F)(F)F)c1Cl)N1CCn2c(C3CC3)nnc2[C@@H]1c1ccccc1` [Example 76, (S)-(2-chloro-3-(trifluoromethyl)phenyl)(3-cyclopropyl-8-phenyl-5,6-dihydro-[1,2,4]triazolo[4,3-a]pyrazin-7(8H)-yl)methanone]: the Ki in assay [1] is 5 nM; in assay [3], 10 nM. For the same compound, the IC50 was found to be 0.0168 µM in assay [2] (FLIPR (rat) IC50 (μM)) and 6.7 nM in assay [4].

Take `CC(C)(C)c1nnc2n1CCN(C(=O)c1cccc(C(F)(F)F)c1Cl)[C@@H]2c1ccccc1` [Example 81, (R)-(3-(tert-butyl)-8-phenyl-5,6-dihydro-[1,2,4]triazolo[4,3-a]pyrazin-7(8H)-yl)(2-chloro-3-(trifluoromethyl)phenyl)methanone]: the Ki came to 8.9 nM in assay [1] and 50.1 nM in assay [3]. In addition, the IC50 in assay [2] (read-out: FLIPR (rat) IC50) was found to be 0.027 µM; in assay [4] it was 11.3 nM.

Regarding `CCc1nnc2n1CCN(C(=O)c1cccc(C(F)(F)F)c1Cl)[C@@H]2c1ccccc1` [Example 86, (R)-(2-chloro-3-(trifluoromethyl)phenyl)(3-ethyl-8-phenyl-5,6-dihydro-[1,2,4]triazolo[4,3-a]pyrazin-7(8H)-yl)methanone], the results for the Ki in assay [1] and in assay [3] were 10 nM and 12.6 nM, respectively. Further, the IC50 turned out to be 0.0585 µM in assay [2] (read-out: FLIPR (rat) IC50) and 2.3 nM in assay [4].

Take `CC(C)c1nnc2n1CCN(C(=O)c1cccc(C(F)(F)F)c1Cl)[C@@H]2c1ccccc1` [Example 88, (R)-(2-chloro-3-(trifluoromethyl)phenyl)(3-isopropyl-8-phenyl-5,6-dihydro-[1,2,4]triazolo[4,3-a]pyrazin-7(8H)-yl)methanone]: the values for the Ki in assay [1] and in assay [3] were 25.1 nM and 20 nM, respectively. In addition, the figures for the IC50 in assay [2] (FLIPR (rat) IC50 (μM)) and in assay [4] were 0.166 µM and 10.2 nM, respectively.

Regarding `O=C(c1cccc(C(F)(F)F)c1Cl)N1CCn2c(C3CCC3)nnc2[C@H]1c1ccccc1` [Example 93, (R)-(2-chloro-3-(trifluoromethyl)phenyl)(3-cyclobutyl-8-phenyl-5,6-dihydro-[1,2,4]triazolo[4,3-a]pyrazin-7(8H)-yl)methanone], the Ki in assay [1] was 6.3 nM; in assay [3] it was 15.8 nM. Also, the IC50 in assay [2] (FLIPR (rat) IC50 (μM)) is 0.0178 µM; in assay [4], 8.1 nM.

As for `O=C(c1ccc(Cl)cc1Cl)N1CCn2c(nnc2C(F)(F)F)[C@H]1c1ccccc1` [Example 120, (R)-(2,4-dichlorophenyl)(8-phenyl-3-(trifluoromethyl)-5,6-dihydro-[1,2,4]triazolo[4,3-a]pyrazin-7(8H)-yl)methanone], the results for the IC50 in assay [2] (FLIPR (rat) IC50 (μM)) and in assay [4] were greater than 10 µM and 476 nM, respectively. Also, affinity in assay [3] was put at a Ki of 50.1 nM.

Take `Cc1c(C(=O)N2CCn3c(nnc3C(F)(F)F)[C@H]2c2ccccc2)cccc1C(F)(F)F` [Example 122, (R)-(2-methyl-3-(trifluoromethyl)phenyl)(8-phenyl-3-(trifluoromethyl)-5,6-dihydro-[1,2,4]triazolo[4,3-a]pyrazin-7(8H)-yl)methanone]: the IC50 was 0.262 µM in assay [2] (FLIPR (rat) IC50 (μM)) and 9.8 nM in assay [4]. Moreover, the Ki in assay [3] was determined as 10 nM.

`O=C(c1ccc(F)c(Cl)c1Cl)N1CCn2c(nnc2C(F)(F)F)[C@H]1c1ccccc1` [Example 124, (R)-(2,3-dichloro-4-fluorophenyl)(8-phenyl-3-(trifluoromethyl)-5,6-dihydro-[1,2,4]triazolo[4,3-a]pyrazin-7(8H)-yl)methanone]: the IC50 in assay [2] (FLIPR (rat) IC50 (μM)) was 0.288 µM; in assay [4] it was 10.6 nM. Besides, the affinity in assay [3], expressed as Ki, was 7.9 nM.

On to `O=C(c1cccc(C(F)(F)F)c1F)N1CCn2c(nnc2C(F)(F)F)[C@H]1c1ccccc1` [Example 128, (R)-(2-fluoro-3-(trifluoromethyl)phenyl)(8-phenyl-3-(trifluoromethyl)-5,6-dihydro-[1,2,4]triazolo[4,3-a]pyrazin-7(8H)-yl)methanone], for which the IC50 stood at 0.291 µM in assay [2] (FLIPR (rat) IC50 (μM)) and 68.5 nM in assay [4]. The compound further registered a Ki in assay [3] of 50.1 nM.
